# Literature values in patent publication US11229674B1, “Nutraceuticals for suppressing indolamine 2,3 deoxygenase” (Therapeutic Solutions International, Inc., priority 2020, dated 2022).
# Experiments:
# [1] = target: T1, IDO (Mus musculus, UniProt P28776); settings: pregnant mice, allogeneic fetuses
# T1 construct: host or cells: tumour-bearing mice (whole animal)
# [2] = target: T1, IDO; settings: mice, combined with chemotherapeutic agents
# T1 sequence (P28776 whole entry): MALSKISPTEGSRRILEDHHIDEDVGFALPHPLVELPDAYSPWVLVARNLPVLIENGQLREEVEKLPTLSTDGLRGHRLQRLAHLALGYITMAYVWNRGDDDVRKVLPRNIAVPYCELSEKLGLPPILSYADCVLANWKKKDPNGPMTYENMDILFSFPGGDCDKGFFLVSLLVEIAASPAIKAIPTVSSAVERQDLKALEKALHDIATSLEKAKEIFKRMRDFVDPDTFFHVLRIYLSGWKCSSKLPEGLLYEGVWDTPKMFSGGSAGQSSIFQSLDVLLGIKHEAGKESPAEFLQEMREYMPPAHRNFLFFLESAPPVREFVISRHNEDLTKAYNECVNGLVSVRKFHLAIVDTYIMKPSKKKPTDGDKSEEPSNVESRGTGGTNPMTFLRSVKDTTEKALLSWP
compound,measurement,setting,value
Cn1cc(CC(N)C(=O)O)c2ccccc21 (centres unmarked) [1MT],Fetal allograft rejection,[1],"rapid, T cell-induced rejection of all allogeneic concept"
same,Tumor growth,[2],synergize with chemotherapeutic agents to reduce tumor growth
